Laboratory results taken from ChEMBL document CHEMBL5465560, “Selectivity Literature for EUbOPEN Chemogenomic Library” (2024).

Columns and labels:
[1] = target: Proto-oncogene tyrosine-protein kinase ROS (Homo sapiens) (UniProt P08922); assay: Selectivity interaction (Millipore kinase profiler) EUB0000124b ROS1; details: at 10 µM
[2] = target: T1, Aurora kinase A (Homo sapiens) (UniProt O14965); assay: Selectivity interaction (KinomeScan (DiscoverX)) EUB0000607a STK6; details: at 10 µM
T1 sequence (whole entry): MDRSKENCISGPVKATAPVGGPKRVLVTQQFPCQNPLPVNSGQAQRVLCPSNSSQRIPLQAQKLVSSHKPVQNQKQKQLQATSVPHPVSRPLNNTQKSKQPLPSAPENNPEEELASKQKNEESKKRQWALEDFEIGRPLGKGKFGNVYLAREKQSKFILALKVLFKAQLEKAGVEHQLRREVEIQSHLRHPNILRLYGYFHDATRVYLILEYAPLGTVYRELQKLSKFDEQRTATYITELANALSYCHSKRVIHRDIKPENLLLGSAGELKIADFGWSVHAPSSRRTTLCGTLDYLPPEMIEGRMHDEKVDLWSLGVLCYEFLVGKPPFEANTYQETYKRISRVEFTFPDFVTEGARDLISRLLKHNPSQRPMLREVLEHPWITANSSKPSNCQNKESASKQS

[3] = target: T2, Serine/threonine-protein kinase D2 (Homo sapiens) (UniProt Q9BZL6); assay: Selectivity interaction (ActivX KiNativ screen (kinase selectivity in THP-1 cell lysates)) EUB0000639a PRKD2; format: subcellular; details: lysate
T2 sequence (whole entry): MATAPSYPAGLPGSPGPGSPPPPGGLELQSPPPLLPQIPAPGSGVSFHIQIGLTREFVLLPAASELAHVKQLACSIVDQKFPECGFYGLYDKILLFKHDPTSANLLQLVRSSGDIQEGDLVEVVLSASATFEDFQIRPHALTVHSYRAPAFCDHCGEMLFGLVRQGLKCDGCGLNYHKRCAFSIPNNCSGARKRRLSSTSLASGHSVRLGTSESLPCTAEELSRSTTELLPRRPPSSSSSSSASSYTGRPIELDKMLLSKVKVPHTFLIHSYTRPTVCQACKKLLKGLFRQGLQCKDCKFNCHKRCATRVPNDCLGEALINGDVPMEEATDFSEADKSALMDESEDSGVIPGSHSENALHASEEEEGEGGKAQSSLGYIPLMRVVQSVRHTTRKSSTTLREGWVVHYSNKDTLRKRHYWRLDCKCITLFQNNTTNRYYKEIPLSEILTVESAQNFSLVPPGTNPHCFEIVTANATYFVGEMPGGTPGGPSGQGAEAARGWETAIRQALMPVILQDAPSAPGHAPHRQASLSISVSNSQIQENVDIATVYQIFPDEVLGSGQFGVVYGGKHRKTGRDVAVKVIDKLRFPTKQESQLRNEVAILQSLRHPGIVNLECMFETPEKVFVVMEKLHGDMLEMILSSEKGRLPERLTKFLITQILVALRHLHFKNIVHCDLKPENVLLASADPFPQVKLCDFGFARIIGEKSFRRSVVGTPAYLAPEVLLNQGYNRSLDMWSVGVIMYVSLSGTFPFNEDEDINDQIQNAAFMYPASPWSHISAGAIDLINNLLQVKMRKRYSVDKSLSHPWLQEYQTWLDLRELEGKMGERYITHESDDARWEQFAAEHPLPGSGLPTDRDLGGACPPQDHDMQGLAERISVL

[4] = target: T3, Serine/threonine-protein kinase tousled-like 1 (Homo sapiens) (UniProt Q9UKI8); assay: Selectivity interaction (ActivX KiNativ screen (kinase selectivity in THP-1 cell lysates)) EUB0000639a TLK1; format: subcellular; details: lysate, at 0.04 µM
T3 sequence (whole entry): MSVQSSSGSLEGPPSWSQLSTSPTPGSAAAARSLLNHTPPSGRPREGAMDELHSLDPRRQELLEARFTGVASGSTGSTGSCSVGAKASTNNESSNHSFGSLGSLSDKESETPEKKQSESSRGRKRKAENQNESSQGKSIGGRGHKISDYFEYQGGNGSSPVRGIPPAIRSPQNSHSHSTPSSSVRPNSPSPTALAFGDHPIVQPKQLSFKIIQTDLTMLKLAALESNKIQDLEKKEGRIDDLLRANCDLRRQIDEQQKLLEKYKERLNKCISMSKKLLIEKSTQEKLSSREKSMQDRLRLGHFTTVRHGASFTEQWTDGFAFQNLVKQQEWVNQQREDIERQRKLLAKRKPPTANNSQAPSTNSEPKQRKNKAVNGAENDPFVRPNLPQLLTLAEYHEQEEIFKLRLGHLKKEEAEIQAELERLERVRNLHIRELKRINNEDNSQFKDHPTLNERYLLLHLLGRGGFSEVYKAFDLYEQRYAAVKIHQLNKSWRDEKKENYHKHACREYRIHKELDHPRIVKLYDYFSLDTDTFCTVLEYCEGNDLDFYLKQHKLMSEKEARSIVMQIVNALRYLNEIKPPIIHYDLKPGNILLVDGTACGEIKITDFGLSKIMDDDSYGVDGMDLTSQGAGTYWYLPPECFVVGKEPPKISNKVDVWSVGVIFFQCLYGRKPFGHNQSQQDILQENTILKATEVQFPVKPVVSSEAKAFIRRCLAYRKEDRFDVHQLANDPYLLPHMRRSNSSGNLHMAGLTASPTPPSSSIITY

[5] = target: T4, Inhibitor of nuclear factor kappa-B kinase subunit epsilon (Homo sapiens) (UniProt Q14164); assay: Selectivity interaction (ActivX KiNativ screen (kinase selectivity in THP-1 cell lysates)) EUB0000639a IKBKE; format: subcellular; details: lysate, at 5 µM
T4 sequence (whole entry): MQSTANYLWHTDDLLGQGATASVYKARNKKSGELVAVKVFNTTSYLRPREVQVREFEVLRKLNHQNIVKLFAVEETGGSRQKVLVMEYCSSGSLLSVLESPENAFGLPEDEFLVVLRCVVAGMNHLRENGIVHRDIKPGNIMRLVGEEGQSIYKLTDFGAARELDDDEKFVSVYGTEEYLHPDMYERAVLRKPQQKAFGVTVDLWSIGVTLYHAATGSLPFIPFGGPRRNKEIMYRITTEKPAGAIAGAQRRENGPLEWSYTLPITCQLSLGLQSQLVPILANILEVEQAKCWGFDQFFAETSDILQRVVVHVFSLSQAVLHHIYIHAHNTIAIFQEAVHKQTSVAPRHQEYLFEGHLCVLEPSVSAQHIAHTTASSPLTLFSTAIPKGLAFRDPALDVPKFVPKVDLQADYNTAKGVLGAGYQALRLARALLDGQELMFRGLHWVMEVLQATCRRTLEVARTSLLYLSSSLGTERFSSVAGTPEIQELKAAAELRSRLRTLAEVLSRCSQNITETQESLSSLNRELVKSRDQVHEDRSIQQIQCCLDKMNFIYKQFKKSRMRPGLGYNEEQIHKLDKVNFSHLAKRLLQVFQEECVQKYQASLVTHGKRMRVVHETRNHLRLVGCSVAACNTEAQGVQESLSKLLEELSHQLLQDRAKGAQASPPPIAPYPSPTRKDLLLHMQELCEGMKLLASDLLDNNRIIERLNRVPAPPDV

Proto-oncogene tyrosine-protein kinase ROS (Homo sapiens), sequence (P08922 whole entry): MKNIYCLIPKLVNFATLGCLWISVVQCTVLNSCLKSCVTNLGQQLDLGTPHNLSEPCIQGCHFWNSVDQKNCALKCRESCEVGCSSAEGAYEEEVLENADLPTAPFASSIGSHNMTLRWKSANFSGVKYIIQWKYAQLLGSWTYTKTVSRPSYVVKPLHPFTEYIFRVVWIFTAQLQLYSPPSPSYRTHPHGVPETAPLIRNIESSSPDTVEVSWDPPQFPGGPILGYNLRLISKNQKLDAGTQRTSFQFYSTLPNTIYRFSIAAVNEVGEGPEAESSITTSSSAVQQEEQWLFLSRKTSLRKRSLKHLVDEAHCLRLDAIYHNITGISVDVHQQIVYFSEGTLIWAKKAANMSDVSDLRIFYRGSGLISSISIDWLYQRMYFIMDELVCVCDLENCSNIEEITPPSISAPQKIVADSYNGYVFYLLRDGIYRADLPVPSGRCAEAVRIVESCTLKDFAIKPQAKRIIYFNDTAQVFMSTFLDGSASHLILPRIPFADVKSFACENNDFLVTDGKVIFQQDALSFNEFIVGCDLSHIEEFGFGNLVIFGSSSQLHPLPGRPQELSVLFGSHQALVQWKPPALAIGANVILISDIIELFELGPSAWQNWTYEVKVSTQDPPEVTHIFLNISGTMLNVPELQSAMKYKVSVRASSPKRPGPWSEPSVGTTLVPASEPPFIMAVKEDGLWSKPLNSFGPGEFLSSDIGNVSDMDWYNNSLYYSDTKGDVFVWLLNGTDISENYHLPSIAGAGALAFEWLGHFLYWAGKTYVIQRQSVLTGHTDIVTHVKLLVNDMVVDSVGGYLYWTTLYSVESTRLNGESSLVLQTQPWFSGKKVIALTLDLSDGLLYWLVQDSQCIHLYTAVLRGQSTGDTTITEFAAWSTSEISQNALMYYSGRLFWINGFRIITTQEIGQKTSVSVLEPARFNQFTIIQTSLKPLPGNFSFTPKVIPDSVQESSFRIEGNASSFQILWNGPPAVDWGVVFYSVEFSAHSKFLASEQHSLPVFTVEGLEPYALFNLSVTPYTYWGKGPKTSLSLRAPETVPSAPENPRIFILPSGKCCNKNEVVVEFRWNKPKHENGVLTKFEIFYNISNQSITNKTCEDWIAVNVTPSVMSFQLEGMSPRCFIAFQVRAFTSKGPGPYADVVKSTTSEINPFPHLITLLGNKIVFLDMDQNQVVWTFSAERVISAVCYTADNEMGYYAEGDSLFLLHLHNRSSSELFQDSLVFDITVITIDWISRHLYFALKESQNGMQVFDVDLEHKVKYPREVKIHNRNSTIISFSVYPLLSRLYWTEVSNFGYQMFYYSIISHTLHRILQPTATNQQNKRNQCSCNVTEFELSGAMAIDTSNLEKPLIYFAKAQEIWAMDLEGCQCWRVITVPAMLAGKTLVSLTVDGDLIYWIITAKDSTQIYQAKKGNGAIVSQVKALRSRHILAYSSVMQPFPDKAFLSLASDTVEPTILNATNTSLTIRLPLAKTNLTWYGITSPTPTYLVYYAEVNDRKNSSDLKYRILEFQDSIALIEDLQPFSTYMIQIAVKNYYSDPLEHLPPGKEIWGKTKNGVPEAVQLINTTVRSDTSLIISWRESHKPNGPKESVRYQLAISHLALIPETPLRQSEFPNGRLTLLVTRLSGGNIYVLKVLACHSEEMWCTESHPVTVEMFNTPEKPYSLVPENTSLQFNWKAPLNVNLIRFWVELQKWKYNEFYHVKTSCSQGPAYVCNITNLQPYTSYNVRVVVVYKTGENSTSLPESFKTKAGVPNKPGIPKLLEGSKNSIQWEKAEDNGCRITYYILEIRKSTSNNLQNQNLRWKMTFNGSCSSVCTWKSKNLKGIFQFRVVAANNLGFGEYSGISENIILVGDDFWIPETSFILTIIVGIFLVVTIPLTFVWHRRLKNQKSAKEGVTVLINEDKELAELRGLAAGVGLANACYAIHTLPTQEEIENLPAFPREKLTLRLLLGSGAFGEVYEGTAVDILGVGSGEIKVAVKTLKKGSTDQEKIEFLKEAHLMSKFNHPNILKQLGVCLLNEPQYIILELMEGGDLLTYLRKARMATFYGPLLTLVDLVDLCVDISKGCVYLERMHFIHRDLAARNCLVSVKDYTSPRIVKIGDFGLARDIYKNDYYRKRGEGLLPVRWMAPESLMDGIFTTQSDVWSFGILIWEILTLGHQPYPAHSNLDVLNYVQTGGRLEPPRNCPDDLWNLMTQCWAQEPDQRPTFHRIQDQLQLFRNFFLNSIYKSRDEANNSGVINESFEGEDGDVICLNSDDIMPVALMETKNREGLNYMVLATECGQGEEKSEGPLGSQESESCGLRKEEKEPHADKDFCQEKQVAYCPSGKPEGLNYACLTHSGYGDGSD

**Q.** With `CC(=O)Nc1cccc(-n2c(=O)n(C3CC3)c(=O)c3c(Nc4ccc(I)cc4F)n(C)c(=O)c(C)c32)c1` as the molecule, how does the % of control [1] read?
**A.** Its % of control is 107%.

**Q.** With `CNC(=O)Nc1ccc(-c2nc(N3CC4CCC(C3)O4)c3cnn(C4CCC5(CC4)OCCO5)c3n2)cc1` as the molecule, how does the % of control [2] read?
**A.** The % of control was 100%.

**Q.** For `CC[C@@H]1[C@H](F)C(=O)N[C@@H]1COc1nccc2cc(C(N)=O)c(OC)cc12` [ZIMLOVISERTIB], which % of inhibition ([3]; at 0.01 µM) is on record?
**A.** Its % of inhibition is 1.1%.

**Q.** And the % of inhibition ([3]; at 0.04 µM)?
**A.** Its % of inhibition is 12.3%.

**Q.** What about the % of inhibition ([3]; at 0.2 µM) of the same molecule?
**A.** Its % of inhibition is 6.8%.

**Q.** What about the % of inhibition ([3]; at 1 µM) of the same molecule?
**A.** The % of inhibition was 11.9%.

**Q.** And the % of inhibition ([3]; at 5 µM)?
**A.** Its % of inhibition is 5.6%.

**Q.** What about the % of inhibition [4] of the same molecule?
**A.** Its % of inhibition is -7.3%.

**Q.** What about the % of inhibition [5] of the same molecule?
**A.** The % of inhibition was 26.2%.
